Measured values reported in patent publication EP2570123A1, “Use of 2,4-dichlorobenzyl alcohol having an anaesthetic effect” (Reckitt Benckiser Healthcare (UK) Limited, priority 2007, dated 2009).

Experiments:
[1] = molecular target: T1, α-subunit of NaV1.2 neuronal sodium channels (Rattus norvegicus, UniProt P04775); experiment: cell-based; conditions: for sensitivity at -70 mV holding potential compared to hyperpolarized holding potentials: -70 mV versus -100 and/or -150 mV; for nHR: Hill coefficient, resting state binding; for blocking potency compared with lidocaine (words): block of resting channels
Method: Stably transfected HEK 293 cell lines expressing the α-subunit of NaV1.2 neuronal sodium channels from a rat were used. The expression vector pRc/CMV (Invitrogen, San Diego, USA) was used for mammalian transfection. Transfection was performed using calcium phosphate precipitation. Permanent expression was achieved by selection for resistance to the aminoglycoside antibiotic geneticin G418 (Life Technology, Eggenstein, Germany).
The stock solution was then dissolved directly in bath solution. The bath solution contained [mM] NaCl 140, MgCl2 1.0, KCl 4.0, CaCl2 2.0, Hepes 5.0, dextrose 5.0. Patch electrodes contained [mM] CsCl2 130, MgCl2 2.0, EGTA 5.0, Hepes 10. All solutions were adjusted to 290 mosm 1^-1 by the addition of mannitol and to pH 7.4 by the addition ofCsOH.
Standard whole-cell voltage-clamp experiments were performed at 20°C. Each experiment consisted of test recordings with the drug present at only one concentration, and of drug-free control recordings before and after the test. Each cell was exposed to one test concentration only. At least three or five independent experiments were performed at each concentration depending on the active being tested.
For data acquisition and further analysis, a EPC9 digitally-controlled amplifier was used in combination with Pulse and Pulse Fit software (HEKA Electronics, Lambrecht, Germany). The EPC9 provides automatic subtraction of capacitive and leakage currents by means of a prepulse protocol. The data were filtered at 10 kHz and digitized at 20 µs per point. The input resistance of the patch pipettes was 2.0-3.5 MΩ and the capacitances of the cells were 9-15 pF; the residual series resistance (after 50% compensation) was 1.2-2.5 MΩ. Experiments with a rise in series resistance were rejected. To minimize time-dependent shifts in the voltage-dependence of steady-state inactivation, all test experiments were performed within 5 min of patch rupture.
Drug effects on the peak current amplitude were assessed at a hyperpolarized membrane potentials (-100 mV and -150mV), at a holding potential close to the normal resting potential in physiological conditions (-70 mV), and, additionally, at -100 mV in the presence of a fraction of slow inactivated channels. Slow inactivation was induced by long (2.5 s) prepulses to -90, -70, -50, -30 and -10 mV, followed by a short hyperpolarization to allow recovery from fast-inactivation. In our protocol the recovery interval was prolonged to 100 ms (instead of 10 ms originally described) in order to allow sufficient time not only for drug-free, but also for all drug-bound states to recover from fast inactivation. The residual sodium current (Inorm) in the presence of a drug (with respect to the peak current elicited with the same protocol during wash-out) elicited with a single test pulse to 0 mV was plotted against the applied concentration of the drug [C]. Concentration-response-curves were fitted using a Hill equation yielding the concentrations for half-maximum channel blockade (ICR50), and the respective Hill coefficients nH. (I)/(Imax) = (IC50^nH)/(IC50^nH + C^nH) [formula] (I)/(Imax) = a(ICR50^nH)/(ICR50^nH + C^nH) + (1-a)(ICI50^nH)/(ICI50^nH + C^nH) [formula]
In the presence of Hexetidine, a 2-state Hill equation, Eq. 2, was applied, yielding the concentrations for half-maximum channel blockade in the inactivated state (ICI50), the respective Hill coefficient nH, and the respective amplitudes a and (1-a). The values previously obtained for ICR50 and nH were entered as constant factors.

[2] = molecular target: T1, α-subunit of NaV1.2 neuronal sodium channels; experiment: Whole-cell voltage-clamp, double-pulse protocol: steady-state availability (fast inactivation), voltage shift and model-dependent affinity for inactivated channels; type: cell-based; parameters: expressed in transfected cells; host or cells: HEK 293, stably transfected with expression vector pRc/CMV and selected with G418; conditions: for nHI: Hill coefficient for inactivated state binding, model fit of Eq.4; for maximum shift in voltage-dependence of sodium channel availability: negative shift in midpoints of steady-state availability plots
Method: Transfection was performed using calcium phosphate precipitation. […] Successful channel expression was verified electrophysiologically.
The bath solution contained [mM] […] Patch electrodes contained [mM]
Each cell was exposed to one test concentration only.
Experiments with a rise in series resistance were rejected.
Drug binding to inactivated channels is hardly accessible to a direct experimental approach, because inactivated channel states and all drug-bound channel states are unavailable on depolarization. A model-dependent method is generally applied to determine the affinity to fast-inactivated channel states. The voltage-dependence of the block and the affinity for fast-inactivated channel states was further assessed by applying a double-pulse protocol. Currents elicited by test pulses (Itest), starting from varying prepulse potentials (from -150 mV to -5 mV), normalized to the current elicited at the most hyperpolarized prepotential (-150 mV), represent the relative fraction of channels that have not been inactivated during the 100 ms inactivating prepulse. Boltzmann fits to the resulting current-voltage plots yield the membrane potential at half-maximum channel availability (V0.5) and the slope factor k, reflecting the 'voltage sensitivity' of inactivation gating (see Eq. 3). (I)/(Imax) = (1)/(1 + e^(((Vtest -V0.5)/(k)))) [formula]
In control conditions, the parameters of the Boltzmann fits reflect the voltage-dependence of the distribution between resting and fast-inactivated channels (the availability curve). In the presence of the drug, the steady-state availability curve reflects drug association with rested and fast-inactivated channels, respectively. […] The underlying assumption is that the higher amount of channel blockade achieved with consecutive membrane depolarization is determined by the distribution of channels between resting and fast-inactivated states along the voltage axis (i.e. the channel availability curve), and by the different binding affinities of the blocking drug for the two channel states. The voltage shift ΔV0.5 in the presence of a drug would depend upon the drug concentration [C] according to Eq. 4. A fit of the model to ΔV0.5 plotted against concentration yields estimates for the concentration for half-maximum effect on fast-inactivated channels ICI50 and the Hill-type coefficient for drug binding to inactivated channels n: ΔV0.5 = k.ln[(1+([C])/(ICR50))/(1+(([C])^n)/(ICR50^n)) [formula]
K and ICR50 are entered as constant factors. K is the slope factor of the availability curve in the controls and ICR50 is the concentration for half-maximum effect on resting channels, obtained at -100 mV holding potential.

[3] = -100 mV, after application of higher concentrations (> EC50)
[4] = ECR50, half maximum blocking concentration, resting channels, fit to concentration-response plots at -150 mV holding potential, HEK 293, 20°C
[5] = estimate for inactivated channels, model fit of Eq.4 to concentration-dependence of the voltage shift in the availability curve, read-out: ECI50

T1 sequence (P04775 whole entry): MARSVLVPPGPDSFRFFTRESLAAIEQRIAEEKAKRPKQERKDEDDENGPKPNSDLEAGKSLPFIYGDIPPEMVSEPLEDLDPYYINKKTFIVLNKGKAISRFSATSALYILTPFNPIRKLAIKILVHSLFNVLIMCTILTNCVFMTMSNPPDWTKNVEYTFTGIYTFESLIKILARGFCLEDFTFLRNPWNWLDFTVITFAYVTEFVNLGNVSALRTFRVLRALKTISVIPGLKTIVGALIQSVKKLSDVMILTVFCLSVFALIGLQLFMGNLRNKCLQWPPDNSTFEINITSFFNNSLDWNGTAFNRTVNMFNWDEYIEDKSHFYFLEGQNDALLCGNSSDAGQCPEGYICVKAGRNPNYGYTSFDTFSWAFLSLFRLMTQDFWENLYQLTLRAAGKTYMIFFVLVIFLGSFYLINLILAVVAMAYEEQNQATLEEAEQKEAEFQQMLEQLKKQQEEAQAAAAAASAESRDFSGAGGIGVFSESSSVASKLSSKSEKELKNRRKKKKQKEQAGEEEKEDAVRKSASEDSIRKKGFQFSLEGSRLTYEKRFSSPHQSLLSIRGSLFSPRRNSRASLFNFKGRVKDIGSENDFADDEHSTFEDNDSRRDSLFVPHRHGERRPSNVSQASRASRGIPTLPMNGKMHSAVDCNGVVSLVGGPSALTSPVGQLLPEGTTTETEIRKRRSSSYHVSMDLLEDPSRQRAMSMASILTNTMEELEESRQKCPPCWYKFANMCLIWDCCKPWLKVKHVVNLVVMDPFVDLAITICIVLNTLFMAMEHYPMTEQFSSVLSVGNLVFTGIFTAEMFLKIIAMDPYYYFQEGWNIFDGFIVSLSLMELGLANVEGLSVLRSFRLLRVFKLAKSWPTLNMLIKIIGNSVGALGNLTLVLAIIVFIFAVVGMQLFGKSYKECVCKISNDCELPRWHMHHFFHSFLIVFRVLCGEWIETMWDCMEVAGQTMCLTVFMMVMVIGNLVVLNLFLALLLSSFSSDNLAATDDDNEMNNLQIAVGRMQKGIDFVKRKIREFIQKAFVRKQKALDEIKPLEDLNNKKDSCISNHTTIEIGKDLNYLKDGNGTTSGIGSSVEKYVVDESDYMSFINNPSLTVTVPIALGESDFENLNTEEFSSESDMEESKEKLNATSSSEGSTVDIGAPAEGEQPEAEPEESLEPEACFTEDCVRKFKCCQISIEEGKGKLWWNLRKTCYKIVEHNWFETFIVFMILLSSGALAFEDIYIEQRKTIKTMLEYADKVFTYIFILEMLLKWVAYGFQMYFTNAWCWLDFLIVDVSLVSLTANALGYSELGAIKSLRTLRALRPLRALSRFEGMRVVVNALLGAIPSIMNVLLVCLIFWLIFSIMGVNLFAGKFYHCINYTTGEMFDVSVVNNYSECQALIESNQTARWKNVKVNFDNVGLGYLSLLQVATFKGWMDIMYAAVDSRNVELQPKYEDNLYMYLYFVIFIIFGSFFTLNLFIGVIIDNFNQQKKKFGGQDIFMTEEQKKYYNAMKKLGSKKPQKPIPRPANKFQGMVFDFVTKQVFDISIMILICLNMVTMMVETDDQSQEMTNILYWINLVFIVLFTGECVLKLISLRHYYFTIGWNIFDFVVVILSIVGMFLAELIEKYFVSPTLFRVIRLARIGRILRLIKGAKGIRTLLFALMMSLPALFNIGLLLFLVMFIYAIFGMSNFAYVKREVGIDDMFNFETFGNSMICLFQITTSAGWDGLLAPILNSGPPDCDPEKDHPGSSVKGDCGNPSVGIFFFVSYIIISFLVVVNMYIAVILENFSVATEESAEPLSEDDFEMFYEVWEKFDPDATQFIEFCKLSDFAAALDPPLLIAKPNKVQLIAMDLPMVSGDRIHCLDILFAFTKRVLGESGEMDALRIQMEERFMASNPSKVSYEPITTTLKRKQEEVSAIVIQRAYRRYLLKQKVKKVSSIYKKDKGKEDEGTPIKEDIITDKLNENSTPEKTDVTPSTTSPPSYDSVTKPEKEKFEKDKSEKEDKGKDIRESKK

SMILES | currents during wash-out, % of control current ([1]; -70 mV holding potential) [%] | currents during wash-out, % of control current ([1]; -100 mV holding potential) [%] | currents during wash-out, % of control current [1, 3] [%] | currents during wash-out, % of control current ([1]; -150 mV holding potential) [%] | sensitivity at -70 mV holding potential compared to hyperpolarized holding potentials [1] | IC50 [1, 4] [µM] | nHR ([1]; -150 mV holding potential) | estimated affinity to inactivated channels compared to resting channels [2] | nHI [2] | IC50 [2, 5] [µM] | maximum shift in voltage-dependence of sodium channel availability [2] [mV] | also measured
CCCCCc1ccc(C)cc1O [AMC, amylmetacresol] | 64 ± 9 | 91 ± 3 | 94 ± 6 | 90 ± 3 |  |  |  |  |  |  |  | IC50 [1]: 55 µM; potency for block of resting sodium channels relative to lidocaine ([1]; depolarization from the resting state): around 10 fold; IC50 [2]: 22 µM; ECI50 lower than the ECR50 ([2]; inactivated versus resting channels): around 3 fold
OCc1ccc(Cl)cc1Cl [DCBA, 2,4-dichlorobenzyl alcohol] | 63 ± 9 | 89 ± 5 |  | 88 ± 3 | slightly increased | 657 | 3.5 | several fold higher | 0.4 | 5.2 | -15 | currents during wash-out, % of control current amplitude ([1]; -100 mV holding potential, after 300 and 500 µM DCBA): 71 ± 3%; blocking potency compared with lidocaine (words) ([1]; listed as Dichlorobenzyl alcohol): about as potent as lidocaine; blocking potency compared with lidocaine (words) ([1]; listed as dichlorobenzyl alcohol): comparable
CCCCCCc1ccc(O)cc1O [HR, hexylresorcinol] |  | 94 ± 4 | 90 ± 10 | 95 ± 3 |  | 21 |  |  |  | 0.3 |  | 
CCCCC(CC)CN1CN(CC(CC)CCCC)CC(C)(N)C1 (stereo not drawn) [HT, hexetidine] | 47 ± 11 |  |  | 80 ± 8 | increased | 35 | 1.08 | several fold higher | 0.5 | 0.05 | -21 | concentrations toxic for the seal in whole cell experiments [1]: above 30 µM; block of sodium inward currents ([1]; 100 µM, 3 experiments, not solely attributable to specific channel block): complete block; IC50 ([1]; estimated EC50, high-affinity binding site, biphasic concentration-response curve, two distinct binding sites): 0.001 µM; inhibition at 0.1 µM ([1]; read-out: block, % of the control current amplitude): 41 ± 13%
